# Results from PubChem BioAssay AID858 (Vanderbilt High Throughput Screening Facility, 2007).
# pEC50: −log10 of the molar value. Activity calls are given as the source filed them.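 Rule for the calls: active = at least two of three replicate dose series yielding a converging curve fit, whether well or thinly supported; inactive = the rest.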
# Biological target: D(1A) dopamine receptor (Homo sapiens) (UniProt P21728)
# Test: D1 receptor modulation with EC30 dopamine, dose response, D1 allosteric modulator project, cell-based, CRE-luciferase, HEK293 (AID 858);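 note: HEK 293 cells bearing human D1 receptor stimulated by dopamine at its EC30; luciferase light from a cAMP response element reporter gene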
# Chain of D(1A) dopamine receptor (Homo sapiens) (P21728 whole entry, looked up): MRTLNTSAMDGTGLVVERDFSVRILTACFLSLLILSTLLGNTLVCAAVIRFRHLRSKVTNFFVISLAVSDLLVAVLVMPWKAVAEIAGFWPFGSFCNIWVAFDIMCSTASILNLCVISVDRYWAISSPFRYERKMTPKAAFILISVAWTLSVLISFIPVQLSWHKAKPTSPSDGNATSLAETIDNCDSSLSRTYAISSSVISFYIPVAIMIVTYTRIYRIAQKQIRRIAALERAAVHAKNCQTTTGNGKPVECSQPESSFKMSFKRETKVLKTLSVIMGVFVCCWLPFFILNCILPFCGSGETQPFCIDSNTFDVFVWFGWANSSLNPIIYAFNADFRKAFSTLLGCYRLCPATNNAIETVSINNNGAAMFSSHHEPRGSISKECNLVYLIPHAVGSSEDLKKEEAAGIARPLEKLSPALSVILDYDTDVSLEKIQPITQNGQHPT
outcome,pEC50,SMILES
inactive,,COc1ccccc1NC(=O)N(Cc1ccc2c(c1)OCO2)Cc1nc2ccccc2c(=O)[nH]1
inactive,,O=c1n(Cc2ccccc2)c2cc(Cl)cnc2n1Cc1ccccc1
inactive,,Cn1c(=O)c2c(-c3ccccc3)n(N3CCOCC3)cc2n(C)c1=O
inactive,,COC(=O)c1c(-c2ccccc2)csc1NC(=O)c1ccco1
inactive,,O=C1CSc2ccccc2N1Cc1ccccc1F
inactive,,C=CCn1c(SCc2nc3c(c(=O)[nH]c(=O)n3CCCC)n2CCC)nnc1-c1ccccc1
inactive,,O=C(NCc1cccs1)C1CC(c2ccccc2O)=NO1 (stereo unspecified)
inactive,,Cc1cc(C)n(CC(=O)n2c3c(c4ccccc42)CCCC3)n1
inactive,,O=c1nc2scc(-c3ccccc3)n2c2ccccc12

# The next lines start with the molecule.
SMILES,outcome,pEC50
CCOC(=O)c1c(C)c(C(=O)NCc2ccccc2OC)c(C)n1C,inactive,
CC(=O)N=c1sc2nc3ccccc3nc2n1N(C(C)=O)C(C)=O,inactive,
CSc1nc2oc3c(c2c2nncn12)CC(C)(C)SC3,inactive,
CC(C)Oc1ccccc1C1CC(=O)Nc2cc3c(cc21)OCCO3 (stereo unspecified),inactive,
Cc1nnc(SCCn2c(N3CCCC(C)C3)nc3c2c(=O)[nH]c(=O)n3C)s1 (stereo unspecified),inactive,
Nc1nc2n(n1)C(c1ccco1)CC(c1ccc(F)cc1)N2 (stereo unspecified),inactive,
Cc1sc2ncnc(SCC(=O)N3CCCC3)c2c1C,inactive,
CC1=CC(C)(C)N=C(NC#N)N1,inactive,
COC(=O)c1sc2ccccc2c1C(=O)OC,inactive,
COc1cccc(-c2nn3c(-c4cc(C)[nH]n4)nnc3s2)c1,inactive,
COC(=O)c1ccc(C(=O)OC)c(NC(=O)COC(=O)C23CC4CC(CC(O)(C4)C2)C3)c1,inactive,
CCCC(=O)Nc1ccc(NC(=O)C2CC2)cn1,,7.65
CCOC(=O)c1c(-c2ccncc2)csc1N,inactive,
CCOC(=O)CCSc1nc(C)c2ccccc2n1,inactive,
CCOC(=O)N1CCN(C(=O)C(C)(C)Oc2ccc(Cl)cc2)CC1,inactive,
C1CCC(c2nn3c(-c4n[nH]c5c4CCC5)nnc3s2)CC1,,5.94
Cc1cc(C)c(C#N)c(SCc2ccc(C#N)cc2)n1,inactive,
